# Calls of active or inactive are those of the source.
# Tests used:
# [1] = target: T1, Heat shock factor protein 1 (Mus musculus, UniProt P38532); assay: enhancement of HSF1-driven luciferase signal – cell-based, NIH3T3, luminescence, dose retest, confirmation (AID 435004); assay type: functional;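 note: stress induced by proteasome inhibitor MG132 added 30 min after compound; luciferase reporter driven by HSF1 response element in NIH3T3 cells; actives raise luminescence as potentiators of the MG132 stress response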
# T1 sequence (P38532 whole entry): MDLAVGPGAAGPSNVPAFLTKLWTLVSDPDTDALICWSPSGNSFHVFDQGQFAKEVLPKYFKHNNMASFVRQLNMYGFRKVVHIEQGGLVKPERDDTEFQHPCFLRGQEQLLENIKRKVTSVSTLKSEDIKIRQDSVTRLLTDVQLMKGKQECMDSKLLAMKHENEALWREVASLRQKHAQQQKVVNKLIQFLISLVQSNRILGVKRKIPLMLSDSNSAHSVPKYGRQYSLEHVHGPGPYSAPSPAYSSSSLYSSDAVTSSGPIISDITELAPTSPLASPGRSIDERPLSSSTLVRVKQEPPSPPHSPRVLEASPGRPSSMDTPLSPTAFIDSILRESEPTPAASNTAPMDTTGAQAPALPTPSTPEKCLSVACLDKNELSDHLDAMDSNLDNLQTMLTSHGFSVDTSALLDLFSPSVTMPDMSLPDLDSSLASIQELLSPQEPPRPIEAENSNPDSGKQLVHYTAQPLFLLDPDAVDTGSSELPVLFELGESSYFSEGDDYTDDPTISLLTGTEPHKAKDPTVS
# [2] = M. tuberculosis H37Rv growth inhibitors, H37Rv strain (AID 1626); assay type: functional
# [3] = target: T2, Histone-lysine N-methyltransferase NSD2 (Homo sapiens, UniProt O96028); assay type: biochemical
# T2 sequence (O96028 whole entry): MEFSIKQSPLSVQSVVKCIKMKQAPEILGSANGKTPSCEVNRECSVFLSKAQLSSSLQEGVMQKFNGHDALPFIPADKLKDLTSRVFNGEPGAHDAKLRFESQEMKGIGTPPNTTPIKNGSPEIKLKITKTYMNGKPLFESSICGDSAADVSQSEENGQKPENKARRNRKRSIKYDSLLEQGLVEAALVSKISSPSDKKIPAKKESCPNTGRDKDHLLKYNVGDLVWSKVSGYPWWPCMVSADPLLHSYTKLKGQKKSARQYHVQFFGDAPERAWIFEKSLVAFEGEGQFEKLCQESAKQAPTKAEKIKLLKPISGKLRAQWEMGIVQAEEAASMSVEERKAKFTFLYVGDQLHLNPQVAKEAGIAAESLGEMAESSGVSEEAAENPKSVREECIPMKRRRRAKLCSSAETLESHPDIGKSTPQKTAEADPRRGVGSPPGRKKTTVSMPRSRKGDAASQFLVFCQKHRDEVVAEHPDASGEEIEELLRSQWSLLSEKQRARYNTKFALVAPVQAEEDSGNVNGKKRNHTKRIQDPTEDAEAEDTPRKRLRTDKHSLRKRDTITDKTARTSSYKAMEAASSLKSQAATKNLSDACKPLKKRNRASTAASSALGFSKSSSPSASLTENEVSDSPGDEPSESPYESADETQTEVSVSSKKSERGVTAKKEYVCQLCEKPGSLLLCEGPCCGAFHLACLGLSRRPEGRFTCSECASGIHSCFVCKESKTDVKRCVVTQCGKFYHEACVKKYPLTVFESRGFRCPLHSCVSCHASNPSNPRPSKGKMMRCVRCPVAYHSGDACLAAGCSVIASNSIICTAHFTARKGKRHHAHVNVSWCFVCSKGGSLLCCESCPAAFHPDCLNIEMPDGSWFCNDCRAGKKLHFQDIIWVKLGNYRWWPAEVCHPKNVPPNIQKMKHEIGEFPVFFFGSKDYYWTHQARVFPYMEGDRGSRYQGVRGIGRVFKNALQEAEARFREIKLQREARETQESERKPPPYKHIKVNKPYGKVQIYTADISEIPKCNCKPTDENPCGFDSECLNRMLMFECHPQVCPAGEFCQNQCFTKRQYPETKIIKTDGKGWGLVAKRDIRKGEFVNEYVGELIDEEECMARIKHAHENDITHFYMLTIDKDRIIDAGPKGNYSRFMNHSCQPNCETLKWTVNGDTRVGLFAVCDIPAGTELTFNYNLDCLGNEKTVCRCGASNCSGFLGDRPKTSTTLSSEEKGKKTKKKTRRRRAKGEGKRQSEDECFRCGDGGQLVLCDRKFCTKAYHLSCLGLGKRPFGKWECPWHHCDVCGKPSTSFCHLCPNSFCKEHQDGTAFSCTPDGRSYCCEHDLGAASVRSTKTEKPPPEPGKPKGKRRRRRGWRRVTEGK
# [4] = target: T3, E3 ubiquitin-protein ligase XIAP (Homo sapiens, UniProt P98170); assay: Counter Screen using XIAP-Bir3 for Chemical Antagonists of Bir1/2 domains of IAP-family anti-apoptotic proteins. [Related pubchem assays (depositor defined):AID1018, AID1449, AID1514, AID1638, AID1749, AID1750, AID488957, AID488963]
# [5] = target: T3, E3 ubiquitin-protein ligase XIAP; assay: small molecules displacing peptide from XIAP – biochemical, IAP family, fluorescence polarization (AID 1018); assay type: functional
# [6] = target: T4, Mucolipin-3 (Homo sapiens, UniProt Q8TDD5); assay: Dose response cell-based high-throughput screening assay for agonists of the transient receptor potential channel ML3 (TRPML3). [Related pubchem assays: 1526, 1424, 1448 ]; assay type: functional
# T4 sequence (Q8TDD5 whole entry): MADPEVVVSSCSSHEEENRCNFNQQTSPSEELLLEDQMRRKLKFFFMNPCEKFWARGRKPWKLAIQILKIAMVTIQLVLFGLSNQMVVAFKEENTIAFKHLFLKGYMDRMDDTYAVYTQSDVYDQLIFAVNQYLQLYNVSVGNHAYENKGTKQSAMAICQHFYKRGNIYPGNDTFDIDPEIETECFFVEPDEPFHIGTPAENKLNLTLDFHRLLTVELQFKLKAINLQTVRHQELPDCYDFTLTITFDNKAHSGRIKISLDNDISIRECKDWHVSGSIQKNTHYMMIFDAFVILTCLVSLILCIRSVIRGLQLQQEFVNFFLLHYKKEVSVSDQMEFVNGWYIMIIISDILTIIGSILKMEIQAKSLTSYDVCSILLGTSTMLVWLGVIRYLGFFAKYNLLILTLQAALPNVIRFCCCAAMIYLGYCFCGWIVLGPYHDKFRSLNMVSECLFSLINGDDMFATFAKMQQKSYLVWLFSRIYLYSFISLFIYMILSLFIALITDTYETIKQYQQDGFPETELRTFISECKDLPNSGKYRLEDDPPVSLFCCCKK
# [7] = target: Ion channel NompC (Danio rerio, UniProt Q7T1G6); assay: Fluorescence counterscreen assay for TRPML3 agonists: dose response cell-based high-throughput screening assay to identify agonists of the transient receptor potential channel N1 (TRPN1). [Related pubchem assays: 1526, 1424, 1448 ]; assay type: functional
# [8] = target: T5, Mannose-6-phosphate isomerase (Homo sapiens, UniProt P34949); assay: MPI inhibition at elevated mannose 6-phosphate – biochemical, fluorescence intensity, high mannose 6-phosphate, primary screen (AID 1220)
# T5 sequence (P34949 whole entry): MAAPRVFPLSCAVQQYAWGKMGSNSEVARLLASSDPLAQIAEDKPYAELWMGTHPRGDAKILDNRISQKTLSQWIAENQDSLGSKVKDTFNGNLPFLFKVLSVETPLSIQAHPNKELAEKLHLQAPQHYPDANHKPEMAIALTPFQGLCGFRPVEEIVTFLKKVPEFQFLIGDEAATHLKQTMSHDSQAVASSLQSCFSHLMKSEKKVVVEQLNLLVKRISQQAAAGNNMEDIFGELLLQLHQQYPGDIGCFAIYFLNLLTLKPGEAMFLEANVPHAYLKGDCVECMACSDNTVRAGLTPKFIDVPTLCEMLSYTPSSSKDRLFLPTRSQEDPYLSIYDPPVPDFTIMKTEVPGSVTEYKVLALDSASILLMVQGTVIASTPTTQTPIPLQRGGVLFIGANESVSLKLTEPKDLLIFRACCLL
# [9] = target: T6, Endoribonuclease toxin MazF (Escherichia coli K-12, UniProt P0AE70); assay: substrate-only fluorescence increase artefacts – biochemical, single-stranded RNase substrate, counter-screen for MazEF activator project, dose response (AID 588502); assay type: functional
# T6 sequence (P0AE70 whole entry): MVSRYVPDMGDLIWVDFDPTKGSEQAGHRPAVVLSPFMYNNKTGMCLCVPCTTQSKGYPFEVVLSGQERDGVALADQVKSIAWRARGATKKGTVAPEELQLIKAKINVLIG
# [10] = target: T6, Endoribonuclease toxin MazF; assay: activation of MazEF endoribonuclease cleavage – biochemical, fluorescence, single-stranded RNA substrate, uHTS hits, dose response (AID 588481); assay type: functional
# [11] = target: T7, COUP transcription factor 2 (Homo sapiens, UniProt P24468); assay: Luminescence-based cell-based high throughput dose response assay to identify inhibitors of COUP-TFII (NR2F2).; assay type: functional;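 note: HEK293 cells transiently cotransfected with COUP-TFII expression vector and reporter; luciferase reporter luminescence driven by COUP-TFII from the pX2-168 reporter plasmid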
# T7 sequence (P24468 whole entry): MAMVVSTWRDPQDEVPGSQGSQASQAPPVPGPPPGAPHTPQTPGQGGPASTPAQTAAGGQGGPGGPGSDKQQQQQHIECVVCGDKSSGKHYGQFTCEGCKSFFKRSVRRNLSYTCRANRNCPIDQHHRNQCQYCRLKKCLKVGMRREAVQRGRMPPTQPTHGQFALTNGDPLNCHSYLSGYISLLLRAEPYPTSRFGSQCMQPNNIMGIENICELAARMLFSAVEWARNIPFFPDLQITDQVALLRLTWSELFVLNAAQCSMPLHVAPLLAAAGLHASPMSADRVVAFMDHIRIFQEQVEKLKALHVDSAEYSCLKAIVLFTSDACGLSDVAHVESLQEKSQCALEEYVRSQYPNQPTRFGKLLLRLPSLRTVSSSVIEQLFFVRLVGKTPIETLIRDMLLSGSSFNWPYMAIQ
# [12] = target: Mitogen-activated protein kinase 10 (Homo sapiens, UniProt P53779); assay: Dose response biochemical screening assay for inhibitors of c-Jun N-Terminal Kinase 3 (JNK3). [Related pubchem assays: 746 ]
# [13] = Luminescence Cell-Based Dose Confirmation HTS to Identify Activators of 5'UTR Stem-Loop Driven Alpha-Synuclein mRNA Translation in H4 Neuroglioblastoma Cells. [Related pubchem assays: 1829 (Project Summary), 1814 (Primary HTS)]; assay type: functional
# [14] = test system: H4; assay: Luminescence Cell-Based Dose Response HTS to Identify Activators of 5'UTR Stem-Loop Driven Prion Protein mRNA Translation in H4 Neuroglioblastoma Cells. [Related pubchem assays: 1829 (Project Summary), 1814 (Primary HTS)]; assay type: functional; settings: Homo sapiens
# [15] = Luminescence Cell-Based Dose Response HTS to Identify Activators of Luciferase Translation or Activity in H4 […] Cells. [Related pubchem assays: 1829 (Project Summary), 1814 (Primary HTS)]; assay type: functional
# [16] = target: FAD-linked sulfhydryl oxidase ALR (Homo sapiens, UniProt P55789); assay: ALR-catalysed DTT oxidation blockers – biochemical, H2O2 detection, luminescence, cherry-pick, dose response (AID 493248)
# [17] = P. falciparum Dd2 growth inhibitors, dose response, SYBR Green, cherry-picked samples (AID 1159567); assay type: functional, cell-based
# [18] = Dd2 parasite growth inhibition in erythrocytes – SYBR Green, dry powder samples, set 9, dose response (AID 1159568); assay type: functional, cell-based
# [19] = target: E3 ubiquitin-protein ligase Mdm2 (Homo sapiens, UniProt Q00987); assay: MDM2-luc reporter signal enhancers, multi-concentration potency testing, MDM2 ubiquitin-protein ligase inhibitor program, whole-cell format, luminescence detection, 384-well microplate (AID 1394); assay type: functional;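 note: MDM2 E3 inhibitors raise luminescence so EC50 is for signal enhancement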
# [20] = toxicity to human hepatoma HepG2 cells – cell-based, cherry-picked samples, cytotoxicity control, dose response (AID 1159577); assay type: functional
# [21] = target: Cytochrome P450 2C9 (Homo sapiens, UniProt P11712)
# Sequence of Cytochrome P450 2C9 (P11712 whole entry): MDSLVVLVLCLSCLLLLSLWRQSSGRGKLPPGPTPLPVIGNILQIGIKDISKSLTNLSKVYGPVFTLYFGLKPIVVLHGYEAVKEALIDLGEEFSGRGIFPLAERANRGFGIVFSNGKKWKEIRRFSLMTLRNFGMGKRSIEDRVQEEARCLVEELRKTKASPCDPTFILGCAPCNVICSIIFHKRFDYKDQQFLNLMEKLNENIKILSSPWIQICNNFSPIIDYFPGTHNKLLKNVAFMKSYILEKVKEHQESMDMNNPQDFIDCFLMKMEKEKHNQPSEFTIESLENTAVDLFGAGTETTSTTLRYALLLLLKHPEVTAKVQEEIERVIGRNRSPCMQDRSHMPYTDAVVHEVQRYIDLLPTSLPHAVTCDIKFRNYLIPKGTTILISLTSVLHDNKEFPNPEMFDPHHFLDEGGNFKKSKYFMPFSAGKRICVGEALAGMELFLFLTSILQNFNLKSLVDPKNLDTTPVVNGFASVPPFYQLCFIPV
# Sequence of Mitogen-activated protein kinase 10 (P53779 whole entry): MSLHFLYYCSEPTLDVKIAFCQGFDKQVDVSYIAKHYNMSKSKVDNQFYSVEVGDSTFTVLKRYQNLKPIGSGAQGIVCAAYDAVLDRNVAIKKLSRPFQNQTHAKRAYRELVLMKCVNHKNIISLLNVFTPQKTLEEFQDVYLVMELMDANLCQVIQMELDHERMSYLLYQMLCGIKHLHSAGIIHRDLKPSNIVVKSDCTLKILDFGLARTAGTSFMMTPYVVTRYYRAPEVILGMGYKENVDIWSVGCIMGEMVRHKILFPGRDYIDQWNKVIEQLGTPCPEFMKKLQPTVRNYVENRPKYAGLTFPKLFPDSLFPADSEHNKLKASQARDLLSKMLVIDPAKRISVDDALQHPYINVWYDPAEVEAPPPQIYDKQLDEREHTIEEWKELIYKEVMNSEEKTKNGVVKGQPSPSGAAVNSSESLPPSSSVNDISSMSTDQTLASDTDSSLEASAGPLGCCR
# T3 sequence (P98170 whole entry): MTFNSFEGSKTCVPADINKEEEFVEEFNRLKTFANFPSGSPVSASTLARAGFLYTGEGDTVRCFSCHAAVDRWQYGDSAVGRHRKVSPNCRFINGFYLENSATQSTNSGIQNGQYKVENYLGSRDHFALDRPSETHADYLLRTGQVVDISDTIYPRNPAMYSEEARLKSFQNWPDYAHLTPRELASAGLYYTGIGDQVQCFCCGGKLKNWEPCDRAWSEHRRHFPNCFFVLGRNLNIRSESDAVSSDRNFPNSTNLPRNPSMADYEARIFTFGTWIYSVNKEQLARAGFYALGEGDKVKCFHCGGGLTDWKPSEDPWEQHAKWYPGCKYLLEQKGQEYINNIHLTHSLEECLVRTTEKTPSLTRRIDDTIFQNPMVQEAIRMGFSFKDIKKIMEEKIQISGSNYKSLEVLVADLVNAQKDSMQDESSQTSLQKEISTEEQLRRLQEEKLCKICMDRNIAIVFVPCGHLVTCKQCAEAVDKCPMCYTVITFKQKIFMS
# Sequence of E3 ubiquitin-protein ligase Mdm2 (Q00987 whole entry): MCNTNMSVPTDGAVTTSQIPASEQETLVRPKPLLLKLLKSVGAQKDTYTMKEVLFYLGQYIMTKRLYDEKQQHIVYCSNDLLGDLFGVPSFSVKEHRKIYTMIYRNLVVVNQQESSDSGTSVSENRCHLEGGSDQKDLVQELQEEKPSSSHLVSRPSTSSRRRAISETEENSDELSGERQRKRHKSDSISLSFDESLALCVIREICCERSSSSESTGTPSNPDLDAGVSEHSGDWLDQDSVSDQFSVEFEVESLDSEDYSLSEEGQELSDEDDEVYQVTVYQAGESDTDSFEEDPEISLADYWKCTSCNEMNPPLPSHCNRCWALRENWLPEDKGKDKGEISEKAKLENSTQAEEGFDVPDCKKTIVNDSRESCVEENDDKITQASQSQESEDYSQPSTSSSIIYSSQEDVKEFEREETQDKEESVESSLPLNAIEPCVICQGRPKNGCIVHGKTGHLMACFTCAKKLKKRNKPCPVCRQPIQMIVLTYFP
# Sequence of Ion channel NompC (Q7T1G6 whole entry): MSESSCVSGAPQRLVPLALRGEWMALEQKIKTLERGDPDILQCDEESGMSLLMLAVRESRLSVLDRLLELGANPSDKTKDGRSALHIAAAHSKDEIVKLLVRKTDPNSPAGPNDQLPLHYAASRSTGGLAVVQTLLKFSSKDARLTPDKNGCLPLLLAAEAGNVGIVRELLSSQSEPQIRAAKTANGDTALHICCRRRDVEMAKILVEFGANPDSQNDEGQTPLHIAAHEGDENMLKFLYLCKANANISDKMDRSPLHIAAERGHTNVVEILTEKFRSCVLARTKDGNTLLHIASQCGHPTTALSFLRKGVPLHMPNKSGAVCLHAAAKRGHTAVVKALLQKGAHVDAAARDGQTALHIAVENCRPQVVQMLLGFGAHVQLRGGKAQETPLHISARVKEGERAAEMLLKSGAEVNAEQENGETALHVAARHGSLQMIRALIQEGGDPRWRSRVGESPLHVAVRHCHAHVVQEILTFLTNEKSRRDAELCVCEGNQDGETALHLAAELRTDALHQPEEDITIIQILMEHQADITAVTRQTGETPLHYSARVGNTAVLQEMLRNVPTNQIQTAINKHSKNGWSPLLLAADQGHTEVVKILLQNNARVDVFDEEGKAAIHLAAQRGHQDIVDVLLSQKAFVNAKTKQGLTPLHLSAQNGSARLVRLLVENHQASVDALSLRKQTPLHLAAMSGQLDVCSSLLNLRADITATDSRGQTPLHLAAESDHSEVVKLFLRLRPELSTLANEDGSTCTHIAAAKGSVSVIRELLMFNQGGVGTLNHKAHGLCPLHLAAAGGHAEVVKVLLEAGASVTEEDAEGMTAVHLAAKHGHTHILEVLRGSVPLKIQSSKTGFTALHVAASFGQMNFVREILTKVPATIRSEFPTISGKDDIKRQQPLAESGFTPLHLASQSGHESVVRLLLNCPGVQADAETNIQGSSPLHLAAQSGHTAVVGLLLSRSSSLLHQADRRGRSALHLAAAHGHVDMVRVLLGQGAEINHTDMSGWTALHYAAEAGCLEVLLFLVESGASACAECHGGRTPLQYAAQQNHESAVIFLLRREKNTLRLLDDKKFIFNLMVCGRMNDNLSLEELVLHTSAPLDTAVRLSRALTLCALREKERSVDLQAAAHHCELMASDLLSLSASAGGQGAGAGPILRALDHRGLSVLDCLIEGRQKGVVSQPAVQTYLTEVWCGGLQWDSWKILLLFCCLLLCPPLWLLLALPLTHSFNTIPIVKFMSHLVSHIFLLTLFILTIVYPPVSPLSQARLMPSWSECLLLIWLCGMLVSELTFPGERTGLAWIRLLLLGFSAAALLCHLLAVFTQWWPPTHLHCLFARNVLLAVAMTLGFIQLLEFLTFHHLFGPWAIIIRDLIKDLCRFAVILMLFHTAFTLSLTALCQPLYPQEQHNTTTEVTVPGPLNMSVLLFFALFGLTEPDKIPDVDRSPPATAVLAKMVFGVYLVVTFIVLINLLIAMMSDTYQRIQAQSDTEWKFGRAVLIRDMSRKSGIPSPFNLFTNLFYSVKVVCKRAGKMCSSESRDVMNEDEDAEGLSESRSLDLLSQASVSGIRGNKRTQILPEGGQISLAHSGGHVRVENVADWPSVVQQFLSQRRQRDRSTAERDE
# Sequence of FAD-linked sulfhydryl oxidase ALR (P55789 whole entry): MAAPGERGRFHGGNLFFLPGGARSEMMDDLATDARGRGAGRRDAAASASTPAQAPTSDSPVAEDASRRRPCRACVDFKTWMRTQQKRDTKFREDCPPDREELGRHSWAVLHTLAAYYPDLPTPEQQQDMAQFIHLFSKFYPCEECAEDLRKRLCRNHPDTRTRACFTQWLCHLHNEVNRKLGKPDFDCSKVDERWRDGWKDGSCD
smiles,measurement,setting,value
Nc1cnn(Cc2ccc(F)cc2)c1,EC50,[1],> 260 µM (inactive)
same,IC50,[2],> 100 µM (active)
CNCc1ccccc1Sc1cccc(O)c1,AC50,[3],> 20 µM (inactive)
CC(SCc1ccccc1)C(=O)NCc1ccccn1 (stereo not given),IC50,[4],> 100 µM (inactive)
same,IC50,[5],> 100 µM (not active)
CCC1CCCCN1S(=O)(=O)c1ccc(S(=O)(=O)N(Cc2cccs2)C2CC2)cc1 (stereo not given),EC50,[6],1.16 µM (active)
same,EC50,[7],> 29.9 µM (not active)
CCN1C(=O)C(=Cc2cc(C)n(C3CC3)c2C)C(=O)N(CC)C1=S,IC50,[8],> 50 µM (not active)
same,EC50,[9],> 99 µM (inactive)
same,EC50,[10],44.4 µM (inactive)
O=c1c2ccccc2oc2cc(C#CC3(O)CCCCC3)ccc12,IC50,[11],> 9.49 µM (active)
CN1C=CC(=C2C(=O)c3ccccc3C2=O)C=C1,IC50,[12],28.5 µM (not active)
C[n+]1c2n(c3ccccc31)N=C(c1ccccc1)CS2,EC50,[13],16 µM (active)
same,EC50,[14],> 120 µM (not active)
same,EC50,[15],> 120 µM (not active)
same,IC50,[11],13.8 µM (inactive)
same,AC50,[16],1.14 µM (active)
N#Cc1ccc(-c2ccc([C@@H]3[C@@H]4CN(C(=O)Nc5ccc6c(c5)OCO6)C[C@H]3N4)cc2)cc1,AC50,[17],3.41 µM (active)
same,AC50,[18],6.54 µM (active)
Cc1cc(NC(=O)Cc2csc(-c3ccccc3)n2)ccc1Br,IC50,[4],> 100 µM (inactive)
same,IC50,[5],> 100 µM (not active)
COc1ccccc1OCC(=O)Nc1cc(S(=O)(=O)N2CCCCC2)ccc1N1CCCCC1,EC50,[19],6.4 µM (not active)
C[C@@H]1CCCCO[C@@H](CN(C)Cc2ccc(Cl)c(Cl)c2)[C@@H](C)CN([C@@H](C)CO)C(=O)c2cc(NS(=O)(=O)c3cccs3)ccc2O1,AC50,[18],1.54 µM (active)
COc1cccc(-c2ccc3c(c2)[C@@H]2[C@@H](CCN2C(=O)NC2CCCCC2)[C@@H](CO)N3C)c1,AC50,[17],2.88 µM (active)
same,AC50,[20],41.4 µM (active)
Oc1[nH]c2ccccc2c1/C=N/c1nccs1,AC50,[21],25.1 µM (inconclusive)
same,IC50,[12],46.6 µM (not active)
CCOC(=O)c1[nH]nc2ccccc12,IC50,[12],> 31 µM (not active)
CCN(CC)CCCN(Cc1cc2cc3c(cc2nc1O)OCO3)C(S)=NCc1ccco1,AC50,[3],> 20 µM (inactive)
CC(C)N(C(=O)Nc1ccc2nccnc2c1)C(C)C,IC50,[8],> 50 µM (not active)
CCSc1nnc(NC(=O)c2cc(-c3ccc(C)c(C)c3O)[nH]n2)s1,IC50,[4],> 100 µM (inactive)
same,IC50,[5],> 100 µM (not active)
N#C/C(=C\c1ccc(-c2ccc(C(=O)O)cc2)o1)C(=O)NCC1CCCO1 (stereo not given),AC50,[3],> 20 µM (inactive)
O=C(Nc1ccc(-c2csnn2)cc1)C1CC1,IC50,[2],> 100 µM (active)
same,EC50,[19],3.55 µM (not active)

# From ChEMBL document CHEMBL1201862, “PubChem BioAssay data set” (2004)
